Results reported in US4068074A, “Cephalosporin derivatives having at the 3-position of the cephem ring a heterocyclic thiomethyl group with a carboxy or sulfo group and at the 7-position of the cephem ring an α-heterocylic acylaminophenyl-acetamide group” (priority 1974, dated 1978).
In brackets after ≈: the same amount, converted by molar mass. Like-named read-outs stand apart in the source and are kept apart here.

Tests used:
Assay type in all cases: cell-based
[1] = system: Pseudomonas aeruginosa 99 (Gentamycin resistant); assay: MIC against bacteria (Table I), strain (5); settings: (5) Pseudomonas aeruginosa 99 (Gentamycin resistant)
Source text: (§1) Now, for illustrating the excellent pharmacological effects of the compounds of this invention, the values of MIC (γ/ml.) of the compounds against various bacteria are shown in Table 1, in which the compounds of this invention used are shown by example numbers.
(5) Pseudomonas aeruginosa 99 (Gentamycin resistant)

[2] = system: Micrococcus flavus ATCC 10240; assay: MIC against bacteria (Table I), strain (15)
Source text: as §1
(15) Micrococcus flavus ATCC 10240

[3] = system: Psuedomonas ovalis IMA 1002; assay: MIC against bacteria (Table I), strain (6); settings: (6) Psuedomonas ovalis IMA 1002
Source text: as §1
(6) Psuedomonas ovalis IMA 1002

[4] = system: Escherichia coli kauffmann 0-1; assay: MIC against bacteria (Table I), strain (7)
Source text: as §1
(7) Escherichia coli kauffmann 0-1

[5] = system: Proteus vulgaris OXK US; assay: MIC against bacteria (Table I), strain (1); settings: (1) Proteus vulgaris OXK US
Source text: as §1
(1) Proteus vulgaris OXK US

[6] = system: Staphylococcus Shimanishi; assay: MIC against bacteria (Table I), strain (17)
Source text: as §1
(17) Staphylococcus Shimanishi

[7] = system: Pseudomonas aeruginosa ATCC 8689; assay: MIC against bacteria (Table I), strain (4)
Source text: as §1
(4) Pseudomonas aeruginosa ATCC 8689

[8] = system: Bacillus subtilis ATCC 6633; assay: MIC against bacteria (Table I), strain (14)
Source text: as §1
(14) Bacillus subtilis ATCC 6633

[9] = system: Shigella sonnei II 37148; assay: MIC against bacteria (Table I), strain (12); settings: II37148
Source text: as §1

[10] = system: Bacillus megatherium 10778; assay: MIC against bacteria (Table I), strain (13)
Source text: as §1

[11] = system: Staphylococcus Onuma; assay: MIC against bacteria (Table I), strain (18)
Source text: as §1
(18) Staphylococcus Onuma

[12] = system: Proteus mirabilis IXM OM-19; assay: MIC against bacteria (Table I), strain (3)
Source text: as §1
(3) Proteus mirabilis IXM OM-19

[13] = system: Salmonella enteritidis; assay: MIC against bacteria (Table I), strain (10); settings: (10) Salmonella enteritidis
Source text: as §1
(10) Salmonella enteritidis

[14] = system: Klebsiella pneumoniae ATCC 10031; assay: MIC against bacteria (Table I), strain (8); settings: (8) Klebsiella pneumoniae ATCC 10031
Source text: as §1
(8) Klebsiella pneumoniae ATCC 10031

[15] = system: Staphylococcus aureus 209P; assay: MIC against bacteria (Table I), strain (16)
Source text: as §1
(16) Staphylococcus aureus 209P

[16] = system: Shigella flexneri 2a 1675; assay: MIC against bacteria (Table I), strain (11); settings: 2A1675
Source text: as §1

[17] = system: Proteus vulgaris 0X 19US; assay: MIC against bacteria (Table I), strain (2)
Source text: as §1
(2) Proteus vulgaris 0X 19US

[18] = system: Salmonella typhi H901 W; assay: MIC against bacteria (Table I), strain (9)
Source text: as §1
(9) Salmonella typhi H901 W

[19] = (17) Staphylococcus Shimanishi, read-out: MIC
[20] = ATCC6633, (14) Bacillus subtilis ATCC 6633, read-out: MIC
[21] = (12) Shigella sonnei II 37148, read-out: MIC
[22] = (13) Bacillus megatherium 10778, read-out: MIC
[23] = IXMOM19, (3) Proteus mirabilis IXM OM-19, read-out: MIC
[24] = Salmonella enterica, read-out: MIC
[25] = (16) Staphylococcus aureus 209P, read-out: MIC
[26] = (11) Shigella flexneri 2a 1675, read-out: MIC
[27] = ATCC8689, (4) Pseudomonas aeruginosa ATCC 8689, read-out: MIC
[28] = (18) Staphylococcus Onuma, read-out: MIC
[29] = 0X19US, (2) Proteus vulgaris 0X 19US, read-out: MIC
[30] = ATCC10240, (15) Micrococcus flavus ATCC 10240, read-out: MIC

Compound	MIC ([1]; read-out: MIC)	MIC ([2]; Micrococcus flavus, ATCC10240)	MIC ([3]; read-out: MIC)	MIC ([4]; Escherichia coli)	MIC ([5]; read-out: MIC)	MIC [6, 19]	MIC [8, 20]	MIC [9, 21]	MIC [10, 22]	MIC [12, 23]	MIC [13, 24]	MIC ([14]; ATCC10031, read-out: MIC)	MIC [15, 25]	MIC [16, 26]	MIC ([17]; Proteus vulgaris, 0X19US)	MIC ([18]; Salmonella enterica, TYPHI)	MIC [7, 27]	MIC ([8]; Bacillus subtilis, ATCC6633)	MIC [11, 28]	MIC [17, 29]	other results
O=C(O)C1=C(CSc2nnc(C(=O)O)s2)CS[C@@H]2[C@H](NC(=O)[C@H](NC(=O)c3cnccc3O)c3ccccc3)C(=O)N12 [Example 11, 7-[D-α-(4-hydroxynicoytinoylamido)-α-phenylacetamido]-3-(5-carboxy-1,3,4-thiadiazol-2-yl)thiomethyl-Δ^3-cephem-4-carboxylic acid]	12.5 mg/L (≈ 19.9 µM)	6.25 mg/L (≈ 9.94 µM)	12.5 mg/L (≈ 19.9 µM)	25 mg/L (≈ 39.8 µM)	0.39 mg/L (≈ 0.62 µM)	3.13 mg/L (≈ 4.98 µM)	0.39 mg/L (≈ 0.62 µM)	25 mg/L (≈ 39.8 µM)	0.39 mg/L (≈ 0.62 µM)	0.56 mg/L (≈ 0.891 µM)	0.39 mg/L (≈ 0.62 µM)	3.13 mg/L (≈ 4.98 µM)	0.39 mg/L (≈ 0.62 µM)	6.25 mg/L (≈ 9.94 µM)	6.25 mg/L (≈ 9.94 µM)	0.78 mg/L (≈ 1.24 µM)	–	–	–	–	MIC ([7]; Pseudomonas aeruginosa, ATCC8689): 25 mg/L (≈ 39.8 µM); MIC ([11]; Staphylococcus): 6.25 mg/L (≈ 9.94 µM)
CSc1ccc2c(=O)c(C(=O)N[C@@H](C(=O)N[C@@H]3C(=O)N4C(C(=O)O)=C(CSc5nnc(SCC(=O)O)s5)CS[C@H]34)c3ccccc3)c[nH]c2c1 [Example 12, 7-[D-α-(7-methylthio-4-quinolon-3-ylcarboxamido)-α-phenylacetamido]-3-(5-carboxymethylthio-1,3,4-thiadiazol-2yl)thiomethyl-Δ^3-cephem-4-carboxylic acid]	12.5 mg/L (≈ 16.2 µM)	3.13 mg/L (≈ 4.06 µM)	25 mg/L (≈ 32.4 µM)	6.25 mg/L (≈ 8.11 µM)	0.19 mg/L (≈ 0.246 µM)	–	–	3.13 mg/L (≈ 4.06 µM)	0.39 mg/L (≈ 0.506 µM)	0.39 mg/L (≈ 0.506 µM)	0.19 mg/L (≈ 0.246 µM)	0.39 mg/L (≈ 0.506 µM)	0.78 mg/L (≈ 1.01 µM)	1.56 mg/L (≈ 2.02 µM)	–	0.19 mg/L (≈ 0.246 µM)	25 mg/L (≈ 32.4 µM)	3.13 mg/L (≈ 4.06 µM)	6.25 mg/L (≈ 8.11 µM)	0.19 mg/L (≈ 0.246 µM)	MIC ([6]; Staphylococcus): 3.13 mg/L (≈ 4.06 µM)
Cc1nc(SCC2=C(C(=O)O)N3C(=O)[C@@H](NC(=O)[C@H](NC(=O)c4cnccc4O)c4ccccc4)[C@H]3SC2)sc1C(=O)O [Example 14, 7-[D-α-(4-hydroxynicotinoylamido)-α-phenylacetamido]-3-(4-methyl-5-carboxythiazol-2-yl)thiomethyl-Δ^3-cephem-4-carboxylic acid]	12.5 mg/L (≈ 19.5 µM)	–	25 mg/L (≈ 39 µM)	3.13 mg/L (≈ 4.88 µM)	0.19 mg/L (≈ 0.296 µM)	12.5 mg/L (≈ 19.5 µM)	0.78 mg/L (≈ 1.22 µM)	3.13 mg/L (≈ 4.88 µM)	0.39 mg/L (≈ 0.608 µM)	0.19 mg/L (≈ 0.296 µM)	0.78 mg/L (≈ 1.22 µM)	6.25 mg/L (≈ 9.74 µM)	–	1.56 mg/L (≈ 2.43 µM)	–	1.56 mg/L (≈ 2.43 µM)	25 mg/L (≈ 39 µM)	–	12.5 mg/L (≈ 19.5 µM)	0.78 mg/L (≈ 1.22 µM)	MIC [2, 30]: 6.25 mg/L (≈ 9.74 µM); MIC ([15]; Staphylococcus aureus, 209P): 1.56 mg/L (≈ 2.43 µM)
Cc1cncc(C(=O)N[C@@H](C(=O)N[C@@H]2C(=O)N3C(C(=O)O)=C(CSc4nnc(SCC(=O)O)s4)CS[C@H]23)c2ccccc2)c1O [Example 27, 7-[D-α-(4-hydroxy-3-methylpyridin-5-ylcarboxamido)-α-phenylacetamido]-3-(5-carboxymethylthio-1,3,4-thiadiazol-2-yl)thiomethyl-Δ^3-cephem-4-carboxylic acid]	6.25 mg/L (≈ 9.07 µM)	–	25 mg/L (≈ 36.3 µM)	3.13 mg/L (≈ 4.54 µM)	< 0.09 mg/L	6.25 mg/L (≈ 9.07 µM)	–	–	–	–	–	1.56 mg/L (≈ 2.26 µM)	–	–	0.78 mg/L (≈ 1.13 µM)	0.78 mg/L (≈ 1.13 µM)	12.5 mg/L (≈ 18.1 µM)	0.78 mg/L (≈ 1.13 µM)	6.25 mg/L (≈ 9.07 µM)	–	MIC [2, 30]: 6.25 mg/L (≈ 9.07 µM); MIC ([9]; Shigella sonnei): 3.13 mg/L (≈ 4.54 µM); MIC ([10]; Bacillus, 10778): 0.78 mg/L (≈ 1.13 µM); MIC ([12]; Proteus mirabilis, IXMOM19): 0.78 mg/L (≈ 1.13 µM); MIC ([15]; Staphylococcus aureus, 209P): 1.56 mg/L (≈ 2.26 µM); MIC ([16]; Shigella flexneri): 0.78 mg/L (≈ 1.13 µM)
O=C(O)CSc1nnc2sc(SCC3=C(C(=O)O)N4C(=O)C(NC(=O)[C@H](NC(=O)c5cnccc5O)c5ccccc5)[C@H]4SC3)nn12 (stereo partly drawn) [Example 34, 7-[D-α-(4-hydroxynicotinoyl-amido)-α-phenylacetamido]-3-(5-carboxymethylthio-[1,2,4]-triazolo-[3,4-b]-[1,3,4]-thiadiazol-2yl)thiomethyl-Δ^3-cephem-4-carboxylic acid]	–	–	–	–	–	–	–	–	–	–	–	–	–	–	–	–	–	–	–	–	MIC [1]: 12.5 mg/L (≈ 17.5 µM); MIC ([2]; (15) Micrococcus flavus ATCC 10240): 12.5 mg/L (≈ 17.5 µM); MIC [3]: 25 mg/L (≈ 35 µM); MIC ([4]; (7) Escherichia coli kauffmann 0-1): 12.5 mg/L (≈ 17.5 µM); MIC [5]: < 0.09 mg/L; MIC ([6]; (17) Staphylococcus Shimanishi): 12.5 mg/L (≈ 17.5 µM); MIC ([7]; (4) Pseudomonas aeruginosa ATCC 8689): 25 mg/L (≈ 35 µM); MIC ([8]; (14) Bacillus subtilis ATCC 6633): 1.56 mg/L (≈ 2.18 µM); MIC ([10]; (13) Bacillus megatherium 10778): 0.78 mg/L (≈ 1.09 µM); MIC ([11]; (18) Staphylococcus Onuma): 25 mg/L (≈ 35 µM); MIC ([12]; (3) Proteus mirabilis IXM OM-19): 0.78 mg/L (≈ 1.09 µM); MIC [13]: 1.56 mg/L (≈ 2.18 µM); MIC [14]: 12.5 mg/L (≈ 17.5 µM); MIC ([15]; (16) Staphylococcus aureus 209P): 3.13 mg/L (≈ 4.38 µM); MIC ([17]; (2) Proteus vulgaris 0X 19US): 0.78 mg/L (≈ 1.09 µM); MIC ([18]; (9) Salmonella typhi H901 W): 6.25 mg/L (≈ 8.74 µM)
